The results in this text go back to paper PMC6934184, “Selective DNA-PKcs inhibition extends the therapeutic index of localized radiotherapy and chemotherapy” (The Journal of Clinical Investigation, 2019).

The structures appear in SMILES notation.

This assay has as its target T1, LATS1 (Homo sapiens, UniProt O95835).
T1 construct: purchased Thermo Fisher Scientific (Life Technologies) SelectScreen
The assay can be described thus: SelectScreen LanthaScreen. In kind it is binding. The settings on record: read-out: % displacement. In a few lines:
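SelectScreen broad panel; activity (Z'LYTE, Adapta) plus binding formats. ATP: Km app for CSF1R Z'LYTE; 10 for CAMK1 Adapta. Readout = % per kinase.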

T1 sequence (O95835 whole entry): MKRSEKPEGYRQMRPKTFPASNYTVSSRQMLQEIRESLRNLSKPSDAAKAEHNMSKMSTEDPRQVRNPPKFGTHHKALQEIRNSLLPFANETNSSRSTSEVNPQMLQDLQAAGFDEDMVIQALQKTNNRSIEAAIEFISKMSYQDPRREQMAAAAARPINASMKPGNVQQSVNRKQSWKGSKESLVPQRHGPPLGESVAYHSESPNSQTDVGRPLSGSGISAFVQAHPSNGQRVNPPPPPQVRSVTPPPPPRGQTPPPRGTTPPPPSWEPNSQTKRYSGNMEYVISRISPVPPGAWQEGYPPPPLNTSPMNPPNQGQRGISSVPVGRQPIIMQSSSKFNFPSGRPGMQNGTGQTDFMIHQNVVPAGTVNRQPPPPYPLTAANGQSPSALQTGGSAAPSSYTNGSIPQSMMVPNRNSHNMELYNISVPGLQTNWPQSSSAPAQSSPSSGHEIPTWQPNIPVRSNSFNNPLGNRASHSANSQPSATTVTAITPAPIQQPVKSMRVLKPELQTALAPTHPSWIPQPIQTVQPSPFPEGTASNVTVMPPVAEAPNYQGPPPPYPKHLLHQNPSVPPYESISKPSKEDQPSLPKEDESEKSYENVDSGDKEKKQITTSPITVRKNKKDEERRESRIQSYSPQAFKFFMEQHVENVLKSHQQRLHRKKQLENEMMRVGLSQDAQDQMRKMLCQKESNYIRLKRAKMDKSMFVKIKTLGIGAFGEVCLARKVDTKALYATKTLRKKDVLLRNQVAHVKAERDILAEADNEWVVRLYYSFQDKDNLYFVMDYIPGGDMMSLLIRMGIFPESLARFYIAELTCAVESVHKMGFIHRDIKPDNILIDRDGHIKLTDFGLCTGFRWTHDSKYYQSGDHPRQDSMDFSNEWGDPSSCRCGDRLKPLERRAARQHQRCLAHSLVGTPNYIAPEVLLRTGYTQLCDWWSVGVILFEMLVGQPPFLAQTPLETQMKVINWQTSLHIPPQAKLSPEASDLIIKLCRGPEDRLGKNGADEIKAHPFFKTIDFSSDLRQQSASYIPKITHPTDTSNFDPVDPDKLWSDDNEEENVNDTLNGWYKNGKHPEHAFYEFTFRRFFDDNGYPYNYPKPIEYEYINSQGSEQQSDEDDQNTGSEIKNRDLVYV

Regarding `CN(C(=O)CN1CCOCC1)c1ccc2sc3c(-c4cccc5c(=O)cc(N6CC7CCC(C6)O7)oc45)cccc3c2c1` [NU5455], the inhibition at 1 µM is -1.3%.
